# Measured values published in ChEMBL document CHEMBL1143852, “Controlled trial of a 5-day course of telithromycin versus doxycycline for treatment of mild to moderate scrub typhus” (2007).
# Test system: Orientia tsutsugamushi
# Assay: Antimicrobial activity against doxycyclin-resistant Orientia tsutsugamushi in patient of scrub typhus assessed as recovery from infection
# Type: functional
row,Structure (SMILES),Activity [%]
1,C[C@H]1c2cccc(O)c2C(=O)C2=C(O)[C@]3(O)C(=O)C(C(N)=O)=C(O)[C@@H](N(C)C)[C@@H]3[C@@H](O)[C@@H]21.O [DOXYCYCLINE],97.8
2,CC[C@H]1OC(=O)[C@H](C)C(=O)[C@H](C)[C@@H](O[C@@H]2O[C@H](C)C[C@H](N(C)C)[C@H]2O)[C@](C)(OC)C[C@@H](C)C(=O)[C@H](C)[C@H]2N(CCCCn3cnc(-c4cccnc4)c3)C(=O)O[C@]12C [TELITHROMYCIN],100
